Source: patent publication EP4660184A1 (Eurofarma Laboratórios S.A., priority 2023, dated 2024)

How the values were obtained:
[1] = biological target: T1, human sodium channels Nav 1.8 (Homo sapiens, UniProt Q9Y5Y9); experiment: Automated whole-cell voltage-clamp (ScreenPatch 384P) sodium current block, Nav 1.8; type: cell-based; details: CHO cells stably expressing human Nav 1.8; inactivation step -40 mV for 8 seconds, test step 10 mV (TP1A); exposure at least five minutes; room temperature; mean if two or more assays; read-out: Nav1.8 IC50
T1 construct: expressed in transfected cells
Experimental: (§1) Biological assays were performed on Chinese hamster ovary (CHO) cells that express human sodium channels Nav 1.8 or Nav 1.7 in a stable manner.
(§2) The experimental protocol voltage-clamp using the whole cell configuration was established on the automated ScreenPatch® 384P platform (SP384PE, Nanion Technologies, Livingston, NJ) and the results were recorded with a Nanion 384-well Patch Clamp chip (NPC) (Nanion Technologies, Livingston, NJ).
(§3) Formula I compounds were diluted in eight concentrations in the extracellular solution composed of saline saline solution, buffered with HEPES (mM): NaCl, 137; KCl, 4; CaCl2, 3,8; MgCl2, 1; HEPES, 10; Glucose, 10; pH 7.4. The […], 50; CsF, 90; MgCl2, 5; EGTA, 5; HEPES, 10; pH 7.2. The duration of exposure of each compound with cells expressing Nav 1.7 or Nav 1.8 was at least five minutes and the assays were performed at room temperature.
(§4) The measurements of the sodium currents of Nav 1.8 and Nav 1.7 were obtained using the voltage protocol described below.
(§5) A holding voltage of -100 mV was established followed by an inactivation voltage step at -40 mV for 8 seconds, followed by a step of -100 mV for 20 ms, followed by a 20 ms step for 10 mV for Nav 1.8 or 0 mV for Nav 1.7 (TP1A) before returning to the holding voltage of -100 mV.
(§6) The protocol was repeated at a frequency of 0.05 Hz and the amplitude of the current was quantified throughout the recording of the TP1A phase. The variation in the amplitude of the peak current was evaluated according to the formula described below, after exposing the cells expressing the channels to each concentration of the different compounds: % Block = (1−(ITP1A,molecule/ITP1A,basal)×100%, [formula] wherein ITP1A,basal and ITP1A,molecule represent the peaks of sodium current input into TP1A before exposure to the compound and in the presence of the compound, respectively.
(§7) Data were obtained by nonlinear regression (nonlinear least squares) with XLfit for Excel (Microsoft, Redmond, WA).
(§8) The compounds were tested in at least one assay to obtain the value of CI50. For compounds that were tested in two or more assays, the results are described as the mean of the CI50 values.

[2] = biological target: T2, human sodium channels Nav 1.7 (Homo sapiens, UniProt Q15858); experiment: Automated whole-cell voltage-clamp (ScreenPatch 384P) sodium current block, Nav 1.7; type: cell-based; details: CHO cells stably expressing human Nav 1.7; inactivation step -40 mV for 8 seconds, test step 0 mV (TP1A); exposure at least five minutes; room temperature; mean if two or more assays; read-out: Nav1.7 IC50
T2 construct: expressed in transfected cells
Experimental: as §1, §2, §3, §4, §5, §6, §7, §8

T2 sequence (Q15858 whole entry): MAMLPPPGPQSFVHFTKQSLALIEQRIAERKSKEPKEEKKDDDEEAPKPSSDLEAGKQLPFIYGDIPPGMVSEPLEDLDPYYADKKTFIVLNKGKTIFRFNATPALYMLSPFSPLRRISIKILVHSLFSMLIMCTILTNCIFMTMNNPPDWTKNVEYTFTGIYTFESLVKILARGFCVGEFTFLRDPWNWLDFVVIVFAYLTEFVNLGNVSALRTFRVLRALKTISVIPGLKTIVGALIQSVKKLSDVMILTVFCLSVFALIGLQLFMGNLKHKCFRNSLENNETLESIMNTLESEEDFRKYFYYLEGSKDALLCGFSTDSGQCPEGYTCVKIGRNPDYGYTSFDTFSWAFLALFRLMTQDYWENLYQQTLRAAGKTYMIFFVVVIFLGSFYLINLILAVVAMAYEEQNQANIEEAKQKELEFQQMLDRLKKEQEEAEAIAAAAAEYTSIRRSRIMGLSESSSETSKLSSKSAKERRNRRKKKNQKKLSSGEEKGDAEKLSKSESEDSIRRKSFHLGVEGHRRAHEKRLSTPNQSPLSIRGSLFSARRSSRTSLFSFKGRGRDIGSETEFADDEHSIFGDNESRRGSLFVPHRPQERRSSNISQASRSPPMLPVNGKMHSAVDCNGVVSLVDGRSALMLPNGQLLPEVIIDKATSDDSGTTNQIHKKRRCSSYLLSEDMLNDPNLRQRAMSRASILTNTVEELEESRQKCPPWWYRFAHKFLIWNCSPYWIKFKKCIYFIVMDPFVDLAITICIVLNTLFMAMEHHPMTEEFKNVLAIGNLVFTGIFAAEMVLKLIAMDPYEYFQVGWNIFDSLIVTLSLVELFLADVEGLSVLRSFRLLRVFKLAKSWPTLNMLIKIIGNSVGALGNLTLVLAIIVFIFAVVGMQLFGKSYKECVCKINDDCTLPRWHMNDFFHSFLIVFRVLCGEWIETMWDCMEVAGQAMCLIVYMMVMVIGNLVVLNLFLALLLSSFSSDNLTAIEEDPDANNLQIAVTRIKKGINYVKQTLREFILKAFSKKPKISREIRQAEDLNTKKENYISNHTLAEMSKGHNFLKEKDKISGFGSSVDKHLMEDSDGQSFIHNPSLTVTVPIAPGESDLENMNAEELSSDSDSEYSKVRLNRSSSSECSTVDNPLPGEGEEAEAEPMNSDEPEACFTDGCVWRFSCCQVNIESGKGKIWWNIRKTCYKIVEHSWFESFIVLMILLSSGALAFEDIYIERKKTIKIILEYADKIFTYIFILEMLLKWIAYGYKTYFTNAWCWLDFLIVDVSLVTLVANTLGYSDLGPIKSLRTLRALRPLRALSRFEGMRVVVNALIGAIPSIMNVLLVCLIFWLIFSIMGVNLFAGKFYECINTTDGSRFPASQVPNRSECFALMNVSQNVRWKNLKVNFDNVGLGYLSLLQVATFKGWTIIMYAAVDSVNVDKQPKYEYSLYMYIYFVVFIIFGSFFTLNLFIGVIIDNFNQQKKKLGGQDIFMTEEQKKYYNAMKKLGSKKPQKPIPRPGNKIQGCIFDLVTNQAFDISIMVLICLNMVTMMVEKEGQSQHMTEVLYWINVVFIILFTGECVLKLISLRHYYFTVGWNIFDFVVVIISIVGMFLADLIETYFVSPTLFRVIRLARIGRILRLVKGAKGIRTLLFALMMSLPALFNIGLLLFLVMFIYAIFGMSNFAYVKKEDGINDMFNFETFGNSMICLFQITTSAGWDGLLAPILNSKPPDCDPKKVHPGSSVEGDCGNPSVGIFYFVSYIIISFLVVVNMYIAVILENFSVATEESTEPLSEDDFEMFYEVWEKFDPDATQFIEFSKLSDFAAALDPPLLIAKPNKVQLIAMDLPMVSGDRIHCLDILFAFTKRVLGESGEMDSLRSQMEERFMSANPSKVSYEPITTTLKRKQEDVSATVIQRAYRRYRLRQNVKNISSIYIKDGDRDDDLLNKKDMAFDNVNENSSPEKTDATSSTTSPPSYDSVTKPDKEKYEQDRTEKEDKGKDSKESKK
T1 sequence (Q9Y5Y9 whole entry): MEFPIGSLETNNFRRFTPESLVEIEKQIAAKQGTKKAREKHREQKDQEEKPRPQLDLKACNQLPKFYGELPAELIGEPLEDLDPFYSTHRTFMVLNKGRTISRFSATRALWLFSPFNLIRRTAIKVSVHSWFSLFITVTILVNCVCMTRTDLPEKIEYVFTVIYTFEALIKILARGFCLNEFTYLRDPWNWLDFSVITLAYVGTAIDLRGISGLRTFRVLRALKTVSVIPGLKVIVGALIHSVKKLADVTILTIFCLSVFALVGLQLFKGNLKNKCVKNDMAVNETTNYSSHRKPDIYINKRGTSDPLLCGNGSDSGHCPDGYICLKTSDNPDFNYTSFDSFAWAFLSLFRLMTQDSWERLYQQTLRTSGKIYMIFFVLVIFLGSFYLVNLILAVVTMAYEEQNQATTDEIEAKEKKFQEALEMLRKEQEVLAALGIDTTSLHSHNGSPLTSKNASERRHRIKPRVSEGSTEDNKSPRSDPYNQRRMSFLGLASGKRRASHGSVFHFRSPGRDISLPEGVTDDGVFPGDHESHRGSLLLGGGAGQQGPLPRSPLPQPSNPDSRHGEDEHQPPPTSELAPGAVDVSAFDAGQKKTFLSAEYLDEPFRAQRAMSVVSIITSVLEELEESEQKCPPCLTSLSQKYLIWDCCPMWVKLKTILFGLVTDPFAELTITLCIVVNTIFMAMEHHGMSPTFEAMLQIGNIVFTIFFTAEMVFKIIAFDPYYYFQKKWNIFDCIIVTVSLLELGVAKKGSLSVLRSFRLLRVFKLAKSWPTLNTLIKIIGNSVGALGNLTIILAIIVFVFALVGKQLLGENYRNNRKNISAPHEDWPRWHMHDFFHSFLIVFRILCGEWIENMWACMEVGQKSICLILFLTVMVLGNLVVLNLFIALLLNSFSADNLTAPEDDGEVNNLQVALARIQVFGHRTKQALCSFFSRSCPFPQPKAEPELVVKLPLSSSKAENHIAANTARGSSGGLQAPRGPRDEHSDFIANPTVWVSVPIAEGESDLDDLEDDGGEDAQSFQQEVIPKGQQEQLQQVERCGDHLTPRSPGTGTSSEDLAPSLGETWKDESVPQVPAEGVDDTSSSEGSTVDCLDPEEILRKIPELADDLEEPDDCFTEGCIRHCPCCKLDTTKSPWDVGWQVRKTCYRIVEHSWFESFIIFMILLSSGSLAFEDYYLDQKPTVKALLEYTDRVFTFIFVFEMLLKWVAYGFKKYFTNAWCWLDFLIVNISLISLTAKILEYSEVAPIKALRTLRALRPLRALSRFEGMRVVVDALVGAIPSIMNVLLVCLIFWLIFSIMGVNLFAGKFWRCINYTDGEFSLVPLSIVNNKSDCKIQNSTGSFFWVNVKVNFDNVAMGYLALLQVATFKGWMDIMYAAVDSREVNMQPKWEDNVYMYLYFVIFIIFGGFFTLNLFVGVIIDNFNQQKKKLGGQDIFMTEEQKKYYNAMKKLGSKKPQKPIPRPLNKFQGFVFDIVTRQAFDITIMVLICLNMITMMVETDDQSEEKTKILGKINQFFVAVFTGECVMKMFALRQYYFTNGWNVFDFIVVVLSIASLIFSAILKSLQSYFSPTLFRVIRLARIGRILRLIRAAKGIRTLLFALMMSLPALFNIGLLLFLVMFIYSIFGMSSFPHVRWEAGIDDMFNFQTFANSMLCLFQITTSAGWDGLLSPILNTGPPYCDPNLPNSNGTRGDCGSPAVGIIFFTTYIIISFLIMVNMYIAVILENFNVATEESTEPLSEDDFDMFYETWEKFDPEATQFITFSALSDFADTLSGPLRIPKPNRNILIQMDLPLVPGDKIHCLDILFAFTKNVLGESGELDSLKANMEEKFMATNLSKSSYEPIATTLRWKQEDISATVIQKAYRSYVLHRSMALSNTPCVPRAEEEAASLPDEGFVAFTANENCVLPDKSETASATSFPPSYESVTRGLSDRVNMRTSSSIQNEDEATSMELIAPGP

CCOc1ccc(-c2cncc(C(=O)NOCc3ccccc3F)n2)cn1 [Compound 32, 6-(6-ethoxypyridine-3-yl)-N-((2-fluorobenzyl)oxy)pyrazine-2-carboxamide]
IC50 [1]: 0.5 to 1 µM | IC50 [2]: > 1 µM

CCOc1ccc(-c2cncc(C(=O)NOCc3cccc(OC)c3)n2)cn1 [Compound 33, 6-(6-ethoxypyridine-3-yl)-N-((3-methoxybenzyl)oxy)pyrazine-2-carboxamide]
IC50 [1]: < 0.5 µM | IC50 [2]: > 1 µM

CCOc1ccc(-c2cncc(C(=O)NOCc3ccccc3O)n2)cn1 [Compound 34, 6-(6-ethoxypyridine-3-yl)-N-((2-hydroxybenzyl)oxy)pyrazine-2-carboxamide]
IC50 [1]: > 1 µM | IC50 [2]: > 1 µM

CCOc1ccc(-c2cncc(C(=O)NOCc3cccc(O)c3)n2)cn1 [Compound 35, 6-(6-ethoxypyridine-3-yl)-N-((3-hydroxybenzyl)oxy)pyrazine-2-carboxamide]
IC50 [1]: < 0.5 µM | IC50 [2]: > 1 µM

CCOc1ccc(-c2cncc(C(=O)NOCc3cncc(OC)c3)n2)cn1 [Compound 36, 6-(6-ethoxypyridine-3-yl)-N-((5-methoxypyridine-3-yl)methoxy)pyrazine-2-carboxamide]
IC50 [1]: < 0.5 µM | IC50 [2]: > 1 µM

CCOc1ccc(-c2cncc(C(=O)NOCc3cc(OC)ccc3F)n2)cn1 [Compound 37, 6-(6-ethoxypyridine-3-yl)-N-((2-fluoro-5-methoxybenzyl)oxy)pyrazine-2-carboxamide]
IC50 [1]: < 0.5 µM | IC50 [2]: > 1 µM

CCOc1ccc(-c2cncc(C(=O)NOCc3cc(OC)cnc3F)n2)cn1 [Compound 38, 6-(6-ethoxypyridine-3-yl)-N-((2-fluoro-5-methoxypyridine-3-yl)methoxy)pyrazine-2-carboxamide]
IC50 [1]: < 0.5 µM | IC50 [2]: > 1 µM

CCOc1ccc(-c2cncc(C(=O)NOCc3cc(OC)ncc3F)n2)cn1 [Compound 39, 6-(6-ethoxypyridine-3-yl)-N-((5-fluoro-2-methoxypyridine-4-yl)methoxy)pyrazine-2-carboxamide]
IC50 [1]: < 0.5 µM | IC50 [2]: > 1 µM

CCOc1ccc(-c2cncc(C(=O)NOCc3cc(N(C)C)ccc3F)n2)cn1 [Compound 40, N-((5-(dimethylamino)-2-fluorobenzyl)oxy)-6-(6-ethoxypyridine-3-yl)pyrazine-2-carboxamide]
IC50 [1]: < 0.5 µM | IC50 [2]: > 1 µM

CCOc1ccc(-c2cncc(C(=O)NOCc3cc(N(C)C)cnc3F)n2)cn1 [Compound 41, N-((5-(dimethylamino)-2-fluoropyridine-3-yl)methoxy)-6-(6-ethoxypyridine-3-yl)pyrazine-2-carboxamide]
IC50 [1]: < 0.5 µM | IC50 [2]: > 1 µM

CCOc1ccc(-c2cncc(C(=O)NOCc3cc(N(C)C)cnc3F)n2)cn1 [Compound 42, N-((5-(dimethylamino)-2-fluoropyridine-3-yl)methoxy)-6-(6-ethoxypyridine-3-yl)pyrazine-2-carboxamide]
IC50 [1]: < 0.5 µM | IC50 [2]: > 1 µM

CCOc1ccc(-c2cncc(C(=O)NOCc3cc(O)ccc3F)n2)cn1 [Compound 43, 6-(6-ethoxypyridine-3-yl)-N-((2-fluoro-5-hydroxybenzyl)oxy)pyrazine-2-carboxamide]
IC50 [1]: > 1 µM | IC50 [2]: > 1 µM

CCOc1ccc(-c2cncc(C(=O)NOCc3cc(OC)ccc3O)n2)cn1 [Compound 44, 6-(6-ethoxypyridine-3-yl)-N-((2-hydroxy-5-methoxybenzyl)oxy)pyrazine-2-carboxamide]
IC50 [1]: > 1 µM | IC50 [2]: > 1 µM

CCOc1ccc(-c2cncc(C(=O)NOCc3cc(C(C)N)ccc3F)n2)cn1 (stereo not drawn) [Compound 45, N-((5-(1-aminoethyl)-2-fluorobenzyl)oxy)-6-(6-ethoxypyridine-3-yl)pyrazine-2-carboxamide]
IC50 [1]: > 1 µM | IC50 [2]: > 1 µM

CCOc1ccc(-c2cncc(C(=O)NOCc3cc(OC)cnc3C)n2)cn1 [Compound 46, 6-(6-ethoxypyridine-3-yl)-N-((5-methoxy-2-methylpyridine-3-yl)methoxy)pyrazine-2-carboxamide]
IC50 [1]: > 1 µM | IC50 [2]: > 1 µM
